Results taken from US9131687B2, “Roseobacticides and uses thereof” (PRESIDENT AND FELLOWS OF HARVARD COLLEGE, priority 2010, dated 2015).
Several values for one entry are separate records, joined by “and”; a condition that tells them apart may be missing. Identical values can stand only once. Like-named read-outs stand apart in the source and are kept apart here.

Assays:
[1] = system: P. gallaeciensis BS107; test: Elicitation of roseobacticide production, HPLC-MS; type: cell-based, Phaeobacter gallaeciensis BS107; conditions: for secondary metabolite production by HPLC-MS: P. gallaeciensis BS107 incubated with elicitor; for EC50: Phaeobacter gallaeciensis
Protocol: (§1) Roseobacter (Phaeobacter gallaeciensis BS107, Ruegeria sp. R11 and Silicibacter pomeroyi DSS3) and other marine strains (see Table 4) were streaked out from frozen stocks and maintained on Marine Broth (Difco 2216) supplemented with 1.5% agar and incubated at 30° C. for two days. A 50 mL test tube containing 5 mL of ½ strength yeast extract, tryptone and sea salt medium (YTSS, per L: 2 g yeast extract, 1.25 g tryptone, 20 g sea salt) was inoculated with each strain and grown overnight at 30° C. on a horizontal rotating drum fermenter. A 500 mL Erlenmeyer flask containing 50 mL of YTSS medium and 0-3 mM pCA was inoculated with 0.5 mL of the overnight culture and incubated at 160 rpm and 30° C. for 3 d. After 3 d, each culture was extracted once with an equal volume of ethyl acetate, dried in vacuo, resuspended in methanol and analyzed by HPLC-MS as described above.
Preparative-scale (2-8 L) cultivation of P. gallaeciensis BS107 (or other roseobacter strains) was carried out in half-strength yeast extract-tryptonesea salt (YTSS) medium, which consists of (per L): 20 g Sigma sea salt, 2 g yeast extract, and 1.25 g tryptone. P. gallaeciensis BS107 (or other roseobacter strains) were streaked out from frozen culture stocks and maintained on Marine Broth agar plates (Difco 2216) at 30° C. Overnight cultures were initiated by inoculating 5 mL YTSS medium in 15 mL culture tubes and shaking these overnight at 250 rpm and 30° C. A 0.5 L Erlenmeyer flask containing 50 mL YTSS medium was inoculated with 0.5 mL of the overnight culture and grown for 12-18 h at 30° C. and 160 rpm. Large 4 L Erlenmeyer flasks, each containing 0.4 L YTSS medium, were inoculated with 4 mL of the overnight culture and supplemented with 1 mM of each of the elicitors (14-18). The cultures were grown for 3 d at 30° C. and roseobacticides purified as described below.
Eight to ten 0.25 L Erlenmeyer flasks each containing 25 mL of YTSS medium and a range of elicitor concentrations (between 0 and 1.2 mM) were inoculated with 0.25 mL of an overnight P. gallaeciensis BS107 culture prepared as described above. These were grown at 30° C. and 160 rpm. After 3 d, each culture was extracted twice with 25 mL of EtOAc. The organic phase was combined, dried over Na2SO4, and subsequently dried in vacuo. The residue was resuspended in 0.3 mL MeOH and analyzed by HPLC-MS as described above. The amount of roseobacticide B (7) produced, which was quantified by massion extraction ([M+H]^+=269), was plotted against the concentration of the elicitor. The maximal amount of 7 was normalized to 100%, and the EC50, the elicitor concentration where production of 7 was half-maximal, was obtained by fitting the data to equation 1, where Bmax and Bmin are the maximal (˜100%) and minimal (˜0%) amounts of 7 and p is a Hill slope parameter to account for variations in the slope. Bmax and Bmin were allowed to vary to obtain the optimal fit as judged by the R^2 correlation value.

[2] = system: Emiliana huxleyi CCMP372; test: Algaecidal assay, cell counts by flow cytometry and microscopy; type: cell-based; conditions: for IC50: Emiliana huxleyi CCMP372, 24 h, flow cytometry; for algal cell population damaged yet intact: lowest Roseobacticide concentration tested, microscopy; for effect of incubation on E. huxleyi cells: microscopy at 12 and 24 h
Protocol: (§2) The algaecidal effect of Roseobacticide A and B was tested against five axenic microalgae (the Prymnesiophytes Emiliana huxleyi (CCMP372) and Isochrysis sp. (CCMP468), the green alga Tetraselmis suecica (CCMP908), the diatom Chaetoceros muelleri (CCMP1318) and the cryptomonad Rhodomonas salina (CCMP1319)). All strains were grown on L1 media except for CCMP1318, which was grown in L1+Si (Guillard, R. R. L. & Hargraves, P. E., 1993, Phycologia 32: 234-236). All strains were maintained at 24° C. under 12 h:12 h light:dark illumination.
(§3) To perform assays, algal cultures were diluted 1:1 with the medium they were grown in and then 1 mL aliquots were placed in a 48 well microtitre plate and treated with 0.01-0.000000001 mg/mL of Roseobacticide A or B, or alternatively with MeOH solvent, or medium (as controls) and incubated for 24 h at 24° C. under 12 h: 12 h light:dark illumination. Each treatment was monitored microscopically at 2, 12 and 24 h. Cell counts were determined by flow cytometry and compared to the solvent control.
(§4) Flow cytometry. For flow cytometry counts, duplicate 0.5 ml samples were fixed with 0.125% (vol/vol) glutaraldehyde in the dark for 10 min. Cells were then frozen in an ethanol dry ice bath and stored at −80° C. until analyzed. Cell concentrations were measured with an EPICS flow cytometer using red fluorescence and forward angle light scattering properties to identify the cells as previously described (Cavender-Bares, K. K., et al., 1998, Limnol. Oceanogr. 43:1383-1388).

[3] = system: Chaetoceros muelleri CCMP1318; test: as above; type: cell-based
Protocol: as §2, §3, §4

[4] = system: Tetraselmis suecica CCMP908; test: as above; type: cell-based; conditions: Tetraselmis suecica CCMP908, 24 h, flow cytometry
Protocol: as §2, §3, §4

[5] = system: Isochrysis sp. CCMP468; test: as above; type: cell-based; conditions: Isochrysis sp. CCMP468, 24 h, flow cytometry
Protocol: as §2, §3, §4

[6] = system: Rhodomonas salina CCMP1319; test: as above; type: cell-based; conditions: for IC50: Rhodomonas salina CCMP1319, 24 h, flow cytometry
Protocol: as §2, §3, §4

[7] = system: Pseudoalteromonas tunicata D2; test: IC50 of Roseobacticide A against selected bacterial strains (disc diffusion / 96 well plate); type: cell-based
Protocol: (§5) Selected bacterial strains (see Table 4) were tested against Roseobacticide A using the disc diffusion assay (Gauvreau, D. & Waring, M., 1982, J. Appl. Microbiol. Biotechnol. 115:104-110). Overnight cultures of each test strain in YTSS were diluted 1000-fold into YTSS containing 0.7% agar and poured into standard Petri dish plates. Blank paper discs (8 mm, Fisher Scientific) were loaded with 50 μg of phaeobactin A and placed on top of the agar. The plates were incubated at 30° C. for 12-24 h and the presence or absence of an inhibition zone was monitored visually. Ampicillin (0.5 μg) and MeOH were used as positive and negative controls, respectively. In addition, the assay was carried out in 96 well plates according to the 2003 guidelines of the Clinical and Laboratory Standards Institute (CLSI, formerly NCCLS) with minor changes.
(§6) Roseobacters were grown and tested in YTSS medium, B. subtilis 3610 in LB, and P. tunicate D2 in Marine Broth (Difco 2216). Inocula for each test organism were prepared by suspending a colony from an agar plate into 5 mL of YTSS, LB, or Marine Broth in 15 mL bacterial culture tubes. These were grown overnight, and then adjusted to 1×10^8 cells/mL. These cell suspensions were used as inocula for 96 well plate assays: 10 μL of inoculum, corresponding to 1×10^6 cells was added to 90 μL of the appropriate medium and supplemented with 10 μL medium (negative control), 10 μL of MeOH (negative control), 10 μL of 0.5 mg/mL, or 0.25 mg/mL of Roseobacticide A. The assay against each test strain was carried out in duplicate. The plate was incubated without shaking for 24 hours at 30° C., and the OD650 nm determined on a Molecular Devices 96 well plate reader. […] The OD650 nm for the wells containing Roseobacticide A in all each cases was between 80-100% of the value determined for the respective negative controls.

[8] = system: Silicibacter pomeroyi DSS3; test: as above; type: cell-based; conditions: Ruegeria pomeroyi
Protocol: as §5, §6

[9] = system: Vibrio anguillarum; test: as above; type: cell-based
Protocol: as §5, §6

[10] = system: Bacillus subtilis 3610; test: as above; type: cell-based
Protocol: as §5, §6

[11] = system: Silicibacter sp. TM1040; test: as above; type: cell-based
Protocol: as §5, §6

[12] = system: Phaeobacter gallaeciensis BS107; test: as above; type: cell-based
Protocol: as §5, §6

[13] = system: Phaeobacter gallaeciensis 2.10; test: as above; type: cell-based
Protocol: as §5, §6

[14] = system: Reugeria sp. R11; test: as above; type: cell-based
Protocol: as §5, §6

[15] = system: panel of marine bacteria and B. subtilis 3610; test: Antibacterial assay against the whole panel of test strains (96 well plate, OD650); type: cell-based; conditions: 10 μL of 0.5 mg/mL or 0.25 mg/mL, 24 hours, 30° C., all test strains
Protocol: as §5
Roseobacters were grown and tested in YTSS medium, B. subtilis 3610 in LB, and P. tunicate D2 in Marine Broth (Difco 2216). […] The plate was incubated without shaking for 24 hours at 30° C., and the OD650 nm determined on a Molecular Devices 96 well plate reader. […] The OD650 nm for the wells containing Roseobacticide A in all each cases was between 80-100% of the value determined for the respective negative controls.

[16] = system: algae; test: Algicidal activity (lysis of algae), summary over algae; type: cell-based; conditions: read-out: LC50 range, algicidal activity
Protocol: as §2, §3
as §4, with “For flow cytometry counts, duplicate 0.5 ml samples were fixed with 0.125% (vol/vol) glutaraldehyde in the dark for 10 min.” left out

[17] = system: P. gallaeciensis; test: Growth (OD650 nm) of P. gallaeciensis cultivated with pCA; type: cell-based, Phaeobacter gallaeciensis; conditions: 1 mM pCA, YTSS medium, 3 d, triplicate
Protocol: as §1
The profiles shown in FIG. 1B have not been corrected for the lower cell density observed in the presence of pCA.

[18] = system: Ruegeria sp. R11; test: pCA-dependent changes of HPLC-MS profile; type: cell-based; conditions: 0.1-3 mM pCA
Protocol: as §1
(§7) The inventors cultured three roseobacter strains—S. pomeroyi DSS-3, Ruegeria sp. R11, and P. gallaeciensis BS107—in the presence of varying pCA concentrations (0.1-3 mM). At various time points, the cultures were extracted with ethyl acetate and analyzed by HPLC-MS. The HPLC-MS profiles from S. pomeroyi and Ruegeria sp. […] In the absence of pCA, these compounds were not produced by P. gallaeciensis under any of the conditions that were investigated.

[19] = system: S. pomeroyi DSS-3; test: pCA-dependent changes of HPLC-MS profile; type: cell-based, Silicibacter pomeroyi DSS-3; conditions: 0.1-3 mM pCA
Protocol: as §1, §7

[20] = BS107, 72 h, 3 d culture, HPLC-MS ion extraction, read-out: EC50, elicitor concentration where production of roseobacticide B (7) is half-maximal

COc1cc(/C=C/C(=O)O)cc(OC)c1O [Roseobacticide 15, sinapic acid]
secondary metabolite production by HPLC-MS [1]: production of a variety of new metabolites | EC50 [1, 20]: 430 ± 30 µM

COc1cc(/C=C/C(=O)O)ccc1O [Roseobacticide 16, ferulic acid]
secondary metabolite production by HPLC-MS [1]: production of a variety of new metabolites | EC50 [1, 20]: 160 ± 20 µM

CSc1cccc2c(-c3ccc(O)cc3)c(=O)oc-2c1 [Roseobacticide A]
IC50 [2]: ≥ 2.2 µM | algal cell population damaged yet intact [2]: 20% | effect of incubation on E. huxleyi cells [2]: cell lysis after 24 h, with cellular damage visible after 12 h | effect on C. muelleri cell shape ([3]; 3.5 μM, 24 h): major morphological changes | IC50 ([3]; Chaetoceros muelleri CCMP1318, 24 h, flow cytometry): > 35 µM | IC50 [4]: > 35 µM | IC50 [5]: > 35 µM | IC50 [6]: ≥ 0.1 µM | IC50 ([6]; Rhodomonas salina, 24 h): 0.1 µM | susceptibility of the R. salina population ([6]; dose response, micrographs): Only a subpopulation appears to be susceptible | IC50 [7]: > 160 µM | IC50 [8]: > 160 µM | IC50 [9]: > 160 µM | IC50 [10]: > 160 µM | IC50 [11]: > 160 µM | IC50 [12]: > 160 µM | IC50 [13]: > 160 µM | IC50 [14]: > 160 µM | OD650 nm relative to the respective negative controls [15]: 80-100% | CC50 [16]: 0.1 to 35 µM

CSc1ccccc2c(-c3ccccc3)c(=O)oc1-2 [Roseobacticide B]
IC50 [2]: 0.19 µM and ≥ 0.19 µM | algal cell population damaged yet intact [2]: 48% | effect of incubation on E. huxleyi cells [2]: cell lysis after 24 h, with cellular damage visible after 12 h

CSc1cccc2c(-c3c[nH]c4ccccc34)c(=O)oc-2c1 [Roseobacticide C]
initial bioassays against E. huxleyi [2]: potent antialgal compounds

CSSc1cccc2c(-c3ccccc3)c(=O)oc-2c1 [Roseobacticide E]
initial bioassays against E. huxleyi [2]: potent antialgal compounds

O=C(O)/C=C/c1ccc(O)cc1 [pCA, p-coumaric acid]
secondary metabolite production by HPLC-MS [1]: stimulated the production of a family of compounds | secondary metabolite production by HPLC-MS ([1]; listed as 14): production of a variety of new metabolites | EC50 [1, 20]: 790 ± 30 µM | EC50 ([1]; BS107, FIG. 1C, average of two measurements, read-out: EC50, dose-response of (6) as a function of [pCA]): 790 ± 30 µM | OD650 nm lower than cultures without pCA [17]: 17±8% | changes of HPLC-MS profile [18]: no significant pCA-dependent changes | changes of HPLC-MS profile [19]: no significant pCA-dependent changes
